Experimental data taken from ChEMBL document CHEMBL1799949, “Enantioselective binding of second generation pyrrolobenzoxazepinones to the catalytic ternary complex of HIV-1 RT wild-type and L100I and K103N drug resistant mutants” (Bioorg Med Chem Lett, 2011).

What was measured:
[1] = molecular target: T1, Human immunodeficiency virus type 1 reverse transcriptase (Human immunodeficiency virus 1, UniProt Q72547, L100I); assay: Inhibition of HIV1 reverse transcriptase L100I mutant
[2] = molecular target: T2, Human immunodeficiency virus type 1 reverse transcriptase (Human immunodeficiency virus 1, UniProt Q72547, V179D); assay: Inhibition of HIV1 reverse transcriptase V179D mutant
[3] = molecular target: T3, Human immunodeficiency virus type 1 reverse transcriptase (Human immunodeficiency virus 1, UniProt Q72547, K103N); assay: Inhibition of HIV1 reverse transcriptase K103N mutant
[4] = molecular target: T4, Human immunodeficiency virus type 1 reverse transcriptase (Human immunodeficiency virus 1, UniProt Q72547); assay: Inhibition of HIV1 wild type reverse transcriptase
[5] = molecular target: T2, Human immunodeficiency virus type 1 reverse transcriptase; assay: Inhibition of HIV1 free reverse transcriptase V179D mutant
[6] = molecular target: T1, Human immunodeficiency virus type 1 reverse transcriptase; assay: Inhibition of HIV1 reverse transcriptase L100I mutant/poly(rA)/oligo(dT) DNA/dTTP ternary complex
[7] = molecular target: T3, Human immunodeficiency virus type 1 reverse transcriptase; assay: Inhibition of HIV1 reverse transcriptase K103N mutant/poly(rA)/oligo(dT) DNA/dTTP ternary complex
[8] = molecular target: T2, Human immunodeficiency virus type 1 reverse transcriptase; assay: Inhibition of HIV1 reverse transcriptase V179D mutant/poly(rA)/oligo(dT) DNA/dTTP ternary complex
[9] = molecular target: T2, Human immunodeficiency virus type 1 reverse transcriptase; assay: Inhibition of HIV1 reverse transcriptase V179D mutant/poly(rA)/oligo(dT) DNA binary complex
[10] = molecular target: T4, Human immunodeficiency virus type 1 reverse transcriptase; assay: Inhibition of HIV1 wild type reverse transcriptase/poly(rA)/oligo(dT) DNA/dTTP ternary complex
[11] = molecular target: T4, Human immunodeficiency virus type 1 reverse transcriptase; assay: Inhibition of HIV1 wild type reverse transcriptase/poly(rA)/oligo(dT) DNA binary complex
[12] = molecular target: T3, Human immunodeficiency virus type 1 reverse transcriptase; assay: Inhibition of HIV1 free reverse transcriptase K103N mutant
[13] = molecular target: T1, Human immunodeficiency virus type 1 reverse transcriptase; assay: Inhibition of HIV1 reverse transcriptase L100I mutant/poly(rA)/oligo(dT) DNA binary complex
[14] = molecular target: T1, Human immunodeficiency virus type 1 reverse transcriptase; assay: Inhibition of HIV1 free reverse transcriptase L100I mutant
[15] = molecular target: T3, Human immunodeficiency virus type 1 reverse transcriptase; assay: Inhibition of HIV1 reverse transcriptase K103N mutant/poly(rA)/oligo(dT) DNA binary complex
[16] = molecular target: T4, Human immunodeficiency virus type 1 reverse transcriptase; assay: Inhibition of HIV1 free wild type reverse transcriptase

| Structure (SMILES) | IC50 [1] | IC50 [2] | IC50 [3] | IC50 [4] | Ki [5] | Ki [6] | Ki [7] | Ki [8] | Ki [9] | Ki [10] | Ki [11] | Ki [12] | Ki [13] | Ki [14] | Ki [15] | Ki [16] |
| --- | --- | --- | --- | --- | --- | --- | --- | --- | --- | --- | --- | --- | --- | --- | --- | --- |
| CCC1(c2ccc(COc3cccc(Cl)c3)cc2)Oc2ccccc2-n2cccc2C1=O (racemic) | 0.25 µM | 0.3 µM | 0.3 µM | 0.1 µM | – | – | – | – | – | – | – | – | – | – | – | – |
| CCC1(c2ccc(CSc3ccccc3)cc2)Oc2ccccc2-n2cccc2C1=O (racemic) | 0.99 µM | 0.15 µM | 0.25 µM | 0.06 µM | – | – | – | – | – | – | – | – | – | – | – | – |
| CCC1(c2ccc(CSc3ccc(Br)cc3)cc2)Oc2ccccc2-n2cccc2C1=O (racemic) | > 400 µM | 0.29 µM | 1.16 µM | 0.06 µM | – | – | – | – | – | – | – | – | – | – | – | – |
| CCC1(c2ccc(CSc3ccc(F)cc3Cl)cc2)Oc2ccccc2-n2cccc2C1=O (racemic) | > 400 µM | > 40 µM | 20.5 µM | 0.61 µM | – | – | – | – | – | – | – | – | – | – | – | – |
| CCC1(c2ccc(CSc3ccccc3)cc2)Oc2ccccc2-n2cccc2C1=O (single isomer, unassigned; (+)) | – | – | – | – | 0.78 µM | 0.51 µM | 0.78 µM | 0.54 µM | 0.78 µM | 0.1 µM | 0.42 µM | 1.35 µM | 0.7 µM | 0.7 µM | 1.35 µM | 0.42 µM |
| CCC1(c2ccc(CSc3ccc(Br)cc3)cc2)Oc2ccccc2-n2cccc2C1=O (single isomer, unassigned; (+)) | – | – | – | – | 0.62 µM | 0.03 µM | 1.04 µM | 0.19 µM | 0.62 µM | 0.11 µM | 0.4 µM | 2.21 µM | 1.2 µM | 1.2 µM | 2.21 µM | 0.4 µM |
| CCC1(c2ccc(CSc3c(Cl)cccc3Cl)cc2)Oc2ccccc2-n2cccc2C1=O (racemic) | > 400 µM | > 40 µM | > 400 µM | 7.36 µM | – | – | – | – | – | – | – | – | – | – | – | – |
| CCC1(c2ccc(COc3ccccc3)cc2)Oc2ccccc2-n2cccc2C1=O (racemic) | 0.2 µM | – | 0.4 µM | 0.15 µM | – | – | – | – | – | – | – | – | – | – | – | – |
| CCC1(c2ccc(CSc3ccc(F)cc3Cl)cc2)Oc2ccccc2-n2cccc2C1=O (single isomer, unassigned; (+)) | – | – | – | – | 0.14 µM | 0.15 µM | 0.02 µM | 0.12 µM | 0.14 µM | 0.01 µM | 0.09 µM | 0.51 µM | 0.2 µM | 0.2 µM | 0.51 µM | 0.09 µM |
| CCC1(c2ccc(CSc3ccc(F)cc3)cc2)Oc2ccccc2-n2cccc2C1=O (racemic) | > 400 µM | > 40 µM | 3.35 µM | 0.25 µM | – | – | – | – | – | – | – | – | – | – | – | – |
